The values below come from US20250099486A1, “WOUND HEALING MEDICAMENT” (The University of Sheffield, priority 2017, published 2025).

Test [1] concerns full-thickness wounds (20 mm). Put plainly: Full-thickness excisional rat wound model. It is filed as in vivo, male Sprague-Dawley (SD) rats. As to the method:
For in vivo experiments, 20 mm diameter and 1.2 mm thickness circles of hydrogels were prepared. These samples were sterilized using ethanol (70%) solution, air dried and equilibrated in PBS briefly before placing on the wound. For animal trials, male Sprague-Dawley (SD) rats weighing 140-170 g were used in the study. The animals had free access to food and water and were kept in the animal house facility of the Centre of Excellence in Molecular Biology (CEMB), Lahore. All animals were treated according to procedures approved by the Institutional Animal Ethics Committee at CEMB, Lahore, Pakistan. Animals were anesthetized with ketamine (100 mg/kg body weight) and xylazine (10 mg/kg body weight) and then the fur from the dorsal side was removed with a hair trimmer (Dingling professional hair clipper, RF-608, China). The backs of the rats were completely shaved for adhesive tape fixation and dressing. After shaving, the backs were cleaned with ethanol and then they were transferred onto a clean sterilized table and three circular shaped wounds were created by removing skin at three marked areas with the help of surgical scissors (Noorani Surgical Medical Supplies, Pakistan). Immediately followed the excision process, one of these wounds was covered with sterilized, 2-deoxy-D-ribose-loaded (using 70% ethanol) membrane circles and the other was covered with the same material membranes but without any 2-deoxy-D-ribose. Both the implanted membranes were sutured in position using sterile braided silk sutures (Mersilk, diameter 220 microns). The scaffolds were covered with adhesive plaster (Mepore, Sweden), further dressed with cotton gauze and finally secured with white surgical adhesive tape (Nitto, Japan) to prevent damage from self-grooming. One of these wounds was kept open and covered with dressing only (Mepore, Sweden) to serve as a negative control.
Surgical dressings were removed after three days of membrane implantation. On days 0, 3, 9, 11, 14 and 17 post-wounding, the wounds were measured and photographed. The wound areas were quantified using Image j software. By the end of experiments, on day 17, rats were euthanized with an overdose of anaesthesia and tissue sections from Implantation sites of normal, sham, control and 2-deoxy-D-ribose-loaded scaffold treated groups were removed. The samples were fixed in 3.7% paraformaldehyde (Sigma-Aldrich, USA) solution for 24 hours at room temperature. They were dehydrated using various concentrations of ethanol and water from 70% to 100% and paraffin blocks were made.
Sections of 6 μm thick were cut from the paraffin embedded samples with a microtome (Leica TP 1020 Automatic Tissue Processor) and placed on Superfrost® plus slides (Menzel-Gläser, Denmark). Conventional Haematoxylin and Eosin (H&E) staining and Gouldner's trichrome staining was performed (Yar et al., International Journal of Polymeric Materials and Polymeric Biomaterials. 2016) before mounting in DPX mounting medium (Fisher Scientific) with a coverslip.
For immunohistochemistry, 6 μm sections were processed with a mouse/rabbit specific HRP/DAB (ABC) Detection IHC Kit (Abcam). After rehydration, antigen retrieval and protein blocking steps, the sections were incubated with 3 different monoclonal antibodies (rabbit anti-CD34 (Abcam) 1:1000, mouse anti-CD80 (Santa Cruz) 1:100 and mouse anti-CD163 (AbD Serotec) 1:300) for 2 hours diluted in 1% BSA (Sigma-Aldrich). This was followed by 10 min incubation with a secondary biotinylated goat anti-polyvalent antibody (Abcam Detection IHC Kit). After incubation with an avidin and biotinylated horseradish peroxidase, the target proteins were visualized by incubation in peroxidase substrate and DAB chromogen (Abcam Detection IHC Kit). Samples were then counterstained with haematoxylin, dehydrated, and mounted as per H&E protocol. Controls consisted of samples incubated without primary and secondary antibodies, or incubated only with secondary antibodies. […]

In test [2] the test system is chorionic allantoic membrane (CAM). Put plainly: CAM assay of deoxy sugar-loaded biomaterials (in ovo, implanted day 8, scored day 14). The format is in vivo, chicken (Gallus domesticus). As for the experimental part:
Fertilized chicken (Gallus domesticus) eggs were purchased from Big Bird (Raiwind road, Lahore, Pakistan) and incubated at 37° C. from day 2 of fertilization until day 8 in a humidified egg incubator (HHD, 435, China). At day 8, a square window (1 cm^2) was cut into the shell and removed, and a 2 cm^2 piece of the electrospun scaffold or hydrogels (16% PCL electrospun scaffold/CS/PVA hydrogel/CS/collagen hydrogels) placed onto the CAM. Each egg was implanted with one scaffold or hydrogel only.
The shell window was closed with parafilm (Bemis Flexible Packaging, USA) and sealed with adhesive tape. After implantation, eggs were placed again at 37° C. in a 40% humidified incubator until day 14. At day 14, biomaterials were retrieved and the eggs were sacrificed. Angiogenesis was quantified by taking light microscope pictures just before scaffold retrieval and then blindly scored by four assessors using histological images of the retrieved materials. The number of implanted and survived eggs is given in the caption of respective CAM assay figures.
D and L isomers of three-deoxysugars (ribose, fucose and rhamnose) were loaded onto the porous freeze gelated triethyl orthoformate (4%) covalently cross-linked chitosan/collagen (1:1) hydrogels. The hydrogels were soaked in an aqueous solution of sugars (1 mg/ml) and were further lyophilized (freeze dried) to produce porous membranes. As for the electrospun scaffold, the hydrogels were grafted into the fertilized eggs at day 8 and after day 14 the eggs were sacrificed and the effect of sugars on angiogenesis was investigated.

Where [3] appears, read: 17 days, loaded CS/collagen scaffold.

On to `O=CC[C@H](O)[C@H](O)CO` [2-deoxy-D-ribose], for which, in test [1] (setting [3]), the “epithelium and hair follicles (Goldner's trichrome)” value was “epithelium and hair follicles already formed”; the “wound healing by histology (H&E)” value was “essentially complete”. For the same compound, the “vascularisation (staining for CD34 positive cells)” value in test [1] (added to chitosan/collagen hydrogel) is listed as “increase in vascularisation”. In test [1] (day 3, loaded CS/collagen scaffold), the “attachment of scaffold to the surrounding tissues” value was “very much attached to the surrounding tissues”. The wound area entry in test [1] (day 9, loaded CS/collagen hydrogel) is on record as “around 50%”. The wound area healed entry in test [1] (day 11, loaded CS/collagen hydrogel) was “more than 50%”. Moreover, in test [1] (day 17, loaded CS/collagen hydrogel), the wound closure result is “completely closed”. Besides, in test [1] (loaded in CS/collagen hydrogel), the wound healing entry is “accelerated”. Further, in test [2] (loaded (1 mg/ml) in cross-linked chitosan/collagen hydrogels), the angiogenic response result was “strongly angiogenic”. Besides, the “angiogenesis compared to the control material” value in test [2] (loaded in chitosan/PVA triethyl orthoformate cross-linked hydrogels) is on record as “promoted angiogenesis”. Moreover, the “angiogenic potential (new blood vessels)” value in test [2] (loaded in electrospun PCL fibers) was “growth of extensive new blood vessels under the material”.
